Measured values published in patent US10577378B2, “EIF4A-inhibiting compounds and methods related thereto” (eFFECTOR Therapeutics, Inc., priority 2015, dated 2020).

Tested on: MDA-MB-231 human breast cancer cells
Assay: Cell proliferation assay (CellTiter-Glo, 72 hours treatment)
Format: cell-based
Settings: Homo sapiens, MDA-MB-231, 72 h, read-out: MDA-MB-231 cell proliferation assay (IC50)
In short: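 MDA-MB-231 cells seeded at 2,500 cells/well, treated next day with compound or DMSO vehicle for 72 h at 37 °C. Proliferation read by CellTiter-Glo; IC50 from sigmoidal non-linear regression, binned as +++ (<100 nM), ++ (100–1000 nM), + (>1000 nM).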

| SMILES | IC50 [nM] |
| --- | --- |
| COc1cncc2c1[C@]1(O)[C@@H](CN3CCN(C)CC3)[C@H](CO)[C@@H](c3ccccc3)[C@]1(c1ccc(Br)cc1)O2 (racemic) [183F, Rac-(4bR,5R,6R,7S,7aR)-7a-(4-bromophenyl)-6-(hydroxymethyl)-4-methoxy-5-((4-methylpiperazin-1-yl)methyl)-7-phenyl-5,6,7,7a-tetrahydro-4bH-cyclopenta[4,5]furo[2,3-c]pyridin-4b-ol] | < 100 |

Same assay, conditions: Homo sapiens; MDA-MB-231 cells, 72 hours at 37° C., CellTiter-Glo; read-out: MDA-MB-231 cell proliferation assay (IC50)

| SMILES | IC50 [nM] |
| --- | --- |
| COc1cncc2c1[C@]1(O)[C@@H](CN(C)C)[C@H](CO)[C@@H](c3ccccc3)[C@]1(c1ccc(Br)cc1)O2 (racemic) [205F, Rac-(4bR,5R,6R,7S,7aR)-7a-(4-bromophenyl)-5-((dimethylamino)methyl)-6-(hydroxymethyl)-4-methoxy-7-phenyl-5,6,7,7a-tetrahydro-4bH-cyclopenta[4,5]furo[2,3-c]pyridin-4b-ol] | < 100 |
| COc1cncc2c1[C@]1(O)[C@H](O)[C@H](C(=O)N3CCN(C)CC3)[C@@H](c3ccccc3)[C@]1(c1ccc(C(F)(F)F)cc1)O2 (racemic) [283F, rac-((4bS,5R,6R,7S,7aR)-4b,5-dihydroxy-4-methoxy-7-phenyl-7a-(4-(trifluoromethyl)phenyl)-4b,6,7,7a-tetrahydro-5H-cyclopenta[4,5]furo[2,3-c]pyridin-6-yl)(4-methylpiperazin-1-yl)methanone] | 100 to 1000 |
| CCN(CC)C[C@H]1[C@@H](O)[C@@]2(O)c3c(cc(Cl)nc3OC)O[C@@]2(c2ccc(C#N)cc2)[C@@H]1c1ccccc1 (racemic) [159Fb, Rac-4-((5aR,6S,7S,8R,8aS)-3-chloro-7-((diethylamino)methyl)-8,8a-dihydroxy-1-methoxy-6-phenyl-6,7,8,8a-tetrahydro-5aH-cyclopenta[4,5]furo[3,2-c]pyridin-5a-yl)benzonitrile] | < 100 |
| COc1cncc2c1[C@]1(O)[C@H](O)[C@H](C(=O)NCC(F)F)[C@@H](c3ccccc3)[C@]1(c1ccc(C(F)(F)F)cc1)O2 (racemic) [285F, Rac-(4bS,5R,6R,7S,7aR)—N-(2,2-difluoroethyl)-4b,5-dihydroxy-4-methoxy-7-phenyl-7a-(4-(trifluoromethyl)phenyl)-4b,6,7,7a-tetrahydro-5H-cyclopenta[4,5]furo[2,3-c]pyridine-6-carboxamide] | 100 to 1000 |
| CN(C)C(=O)[C@H]1[C@@H](O)[C@@]2(O)c3c(C#N)cncc3O[C@@]2(c2ccc(C#N)cc2)[C@@H]1c1ccccc1 (racemic) [96F, Rac-(4bS,5R,6R,7S,7aR)-4-cyano-7a-(4-cyanophenyl)-4b,5-dihydroxy-N,N-dimethyl-7-phenyl-4b,6,7,7a-tetrahydro-5H-cyclopenta[4,5]furo[2,3-c]pyridine-6-carboxamide] | > 1000 |
| COc1cncc2c1[C@]1(O)[C@H](O)[C@H](CNC3CC3)[C@@H](c3ccccc3)[C@]1(c1ccc(C#N)cc1)O2 (racemic) [244F, Rac-4-((4bS,5R,6S,7S,7aR)-6-((cyclopropylamino)methyl)-4b,5-dihydroxy-4-methoxy-7-phenyl-4b,5,6,7-tetrahydro-7aH-cyclopenta[4,5]furo[2,3-c]pyridin-7a-yl)benzonitrile] | < 100 |
| COc1nc(C#N)cc2c1[C@]1(O)[C@H](O)[C@H](CN(C)C)[C@@H](c3ccccc3)[C@]1(c1ccc(Cl)cc1)O2 (single isomer, unassigned) [145F] | < 100 |
| O[C@@H]1C2(CC2)[C@@H](c2ccccc2)[C@]2(c3ccc(Br)cc3)Oc3cc(Cl)cnc3[C@]12O (racemic) [92F, Rac-(5aR,6R,8R,8aS)-5a-(4-bromophenyl)-3-chloro-6-phenyl-5a,6-dihydrospiro[cyclopenta[4,5]furo[3,2-b]pyridine-7,1′-cyclopropane]-8,8a(8H)-diol] | > 1000 |
| COc1cncc2c1[C@]1(O)[C@H](O)[C@H](C(=O)NCC(C)(C)O)[C@@H](c3ccccc3)[C@]1(c1ccc(Br)cc1)O2 (racemic) [253F, Rac-(4bS,5R,6R,7S,7aR)-7a-(4-bromophenyl)-4b,5-dihydroxy-N-(2-hydroxy-2-methylpropyl)-4-methoxy-7-phenyl-4b,6,7,7a-tetrahydro-5H-cyclopenta[4,5]furo[2,3-c]pyridine-6-carboxamide] | < 100 |
| COc1nc(C#N)cc2c1[C@]1(O)[C@H](O)[C@H](CN3CCC(F)CC3)[C@@H](c3ccccc3)[C@]1(c1ccc(C#N)cc1)O2 (racemic) [156Fc, Rac-(5aR,6S,7S,8R,8aS)-5a-(4-cyanophenyl)-7-((4-fluoropiperidin-1-yl)methyl)-8,8a-dihydroxy-1-methoxy-6-phenyl-5a,7,8,8a-tetrahydro-6H-cyclopenta[4,5]furo[3,2-c]pyridine-3-carbonitrile] | < 100 |
| COc1nccc2c1[C@]1(O)[C@H](O)[C@H](CN(C)C)[C@@H](c3ccccc3)[C@]1(c1ccc(C(F)(F)F)cc1)O2 (racemic) [149F, Rac-(5aR,6S,7S,8R,8aS)-7-((dimethylamino)methyl)-1-methoxy-6-phenyl-5a-(4-(trifluoromethyl)phenyl)-5a,6,7,8-tetrahydro-8aH-cyclopenta[4,5]furo[3,2-c]pyridine-8,8a-diol] | > 1000 |
| NC[C@H]1C[C@@H](c2ccccc2)[C@]2(c3ccc(Br)cc3)Oc3cc(Cl)cnc3[C@]12O (racemic) [174F, Rac-(5aR,6S,8R,8aR)-8-(aminomethyl)-5a-(4-bromophenyl)-3-chloro-6-phenyl-5a,6,7,8-tetrahydro-8aH-cyclopenta[4,5]furo[3,2-b]pyridin-8a-ol] | < 100 |
| COc1cncc2c1[C@]1(O)[C@H](O)[C@H](C(=O)N(C)C)[C@@H](c3ccccc3)[C@]1(c1ccc(C)cc1)O2 (racemic) [255F, rac-(4bS,5R,6R,7S,7aR)-4b,5-dihydroxy-4-methoxy-N,N-dimethyl-7-phenyl-7a-(p-tolyl)-4b,6,7,7a-tetrahydro-5H-cyclopenta[4,5]furo[2,3-c]pyridine-6-carboxamide] | 100 to 1000 |
| COc1ccc(Cn2cc3c(n2)[C@]2(O)[C@H](O)[C@H](C(=O)N(C)C)[C@@H](c4ccccc4)[C@]2(c2ccc(C#N)cc2)O3)cc1 (racemic) [99F, Rac-(4aR,5S,6R,7R,7aS)-4a-(4-cyanophenyl)-7,7a-dihydroxy-2-(4-methoxybenzyl)-N,N-dimethyl-5-phenyl-2,4a,5,6,7,7a-hexahydrocyclopenta[4,5]furo[3,2-c]pyrazole-6-carboxamide] | > 1000 |
| COc1cncc2c1[C@]1(O)[C@H](O)[C@H](CN(C)CC(F)(F)F)[C@@H](c3ccccc3)[C@]1(c1ccc(C#N)cc1)O2 (single isomer, unassigned) [233F] | 100 to 1000 |
| CC1(C)COCCN1C[C@H]1[C@@H](O)[C@@]2(O)c3ncc(Cl)cc3O[C@@]2(c2ccc(Br)cc2)[C@@H]1c1ccccc1 (racemic) [214F, Rac-(5aR,6S,7S,8R,8aS)-5a-(4-bromophenyl)-3-chloro-7-((3,3-dimethylmorpholino)methyl)-6-phenyl-5a,6,7,8-tetrahydro-8aH-cyclopenta[4,5]furo[3,2-b]pyridine-8,8a-diol] | 100 to 1000 |
| N#Cc1ccc([C@@]23Oc4cc(Cl)cnc4[C@]2(O)[C@H](O)[C@H](CN2CCCC2)[C@H]3c2ccccc2)cc1 (racemic) [41Fb, rac-4-((5aR,6S,7S,8R,8aS)-3-chloro-8,8a-dihydroxy-6-phenyl-7-(pyrrolidin-1-ylmethyl)-6,7,8,8a-tetrahydro-5aH-cyclopenta[4,5]furo[3,2-b]pyridin-5a-yl)benzonitrile] | 100 to 1000 |
| COc1nc(C#N)cc2c1[C@]1(O)[C@H](O)[C@H](CN(C)C)[C@@H](c3ccccc3)[C@]1(c1ccc(C(F)(F)F)cc1)O2 (single isomer, unassigned) [147F] | < 100 |
| COC(=O)[C@@H]1[C@@H](c2ccccc2)[C@]2(c3ccc(Br)cc3)Oc3cc(Cl)cnc3[C@]2(O)[C@H]1C#N (racemic) [49F, Rac-methyl (5aR,6S,7R,8R,8aR)-5a-(4-bromophenyl)-3-chloro-8-cyano-8a-hydroxy-6-phenyl-5a,7,8,8a-tetrahydro-6H-cyclopenta[4,5]furo[3,2-b]pyridine-7-carboxylate] | 100 to 1000 |
| COc1cncc2c1[C@]1(O)[C@H](O)[C@H](S(C)(=O)=O)[C@@H](c3ccccc3)[C@]1(c1ccc(Br)cc1)O2 (racemic) [101F, rac-(4bS,5S,6R,7S,7aR)-7a-(4-bromophenyl)-4-methoxy-6-(methylsulfonyl)-7-phenyl-5,6,7,7a-tetrahydro-4bH-cyclopenta[4,5]furo[2,3-c]pyridine-4b,5-diol] | 100 to 1000 |
| COc1ccc([C@@]23Oc4cc(C#N)cnc4[C@]2(O)[C@H](O)[C@H](C(=O)N(C)C)[C@H]3c2ccccc2)cc1 (single isomer, unassigned) [4F] | 100 to 1000 |
| N#Cc1ccc([C@@]23Oc4cc(Cl)cnc4[C@]2(O)[C@@H](CN2CCOCC2)C[C@H]3c2ccccc2)cc1 (racemic) [178F, Rac-4-((5aR,6S,8R,8aR)-3-chloro-8a-hydroxy-8-(morpholinomethyl)-6-phenyl-6,7,8,8a-tetrahydro-5aH-cyclopenta[4,5]furo[3,2-b]pyridin-5a-yl)benzonitrile] | < 100 |
| O[C@H]1C[C@@H](c2ccccc2)[C@]2(c3ccc(Br)cc3)Oc3cc(Cl)cnc3[C@]12O (racemic) [130F, Rac-(5aR,6S,8S,8aS)-5a-(4-bromophenyl)-3-chloro-6-phenyl-5a,6,7,8-tetrahydro-8aH-cyclopenta[4,5]furo[3,2-b]pyridine-8,8a-diol] | > 1000 |
| CN(C)C(=O)[C@H]1[C@@H](O)[C@@]2(O)c3c(Cl)cncc3O[C@@]2(c2ccc(C#N)cc2)[C@@H]1c1ccccc1 (single isomer, unassigned) [98F] | 100 to 1000 |
| COc1cc2c(c(OC)n1)[C@]1(O)[C@H](O)[C@H](CN(C)C)[C@@H](c3ccccc3)[C@]1(c1ccc(C#N)cc1)O2 (single isomer, unassigned) [231F] | < 100 |
| CN(C)C(=O)[C@H]1[C@@H](O)[C@@]2(O)c3ncccc3O[C@@]2(c2ccc(C#N)cc2)[C@@H]1c1ccccc1 (single isomer, unassigned) [9F] | > 1000 |
